Measurements taken from article PMC7497249, “Synthesis and Biological Screening of New Lawson Derivatives as Selective Substrate‐Based Inhibitors of Cytochrome bo3 Ubiquinol Oxidase from Escherichia coli” (Chemmedchem, 2020).
Several values for one entry are separate records, joined by “and”; a condition that tells them apart may be missing. Equal entries are not always repeated. Where two headings read alike, the source gives them in different places.

Experiments:
[1] = absorbance-based thermodynamic equilibrium solubility assay; format: physicochemical; conditions: buffer 20 mM NaPi, 50 mM NaCl, 0.02 % DDM, pH 8.0, room temperature; for solubility at 1 day: sodium phosphate buffer
Protocol: To meet the requirements for further functional investigations, the solubilities of the HNQ compounds were determined by an absorbance‐based thermodynamic equilibrium solubility assay.36 As shown in Scheme 3a, plotting absorbance over concentration at the wavelength of the maximum peak of the absorbance spectra, (HNQ‐2 at λ=274 nm), provides a saturation point at 1.26±0.03 mM (solubility graphs for all HNQ compounds are shown in Figure S37). […]. Therefore, all twelve HNQ compounds are feasible for further functional studies.
Solubility assay: Thermodynamic equilibrium solubility of HNQ compounds was determined in sodium phosphate buffer containing 20 mM NaPi, 50 mM NaCl, 0.02 % DDM at pH 8.0. All steps were performed at room temperature following the method by Bharate and Vishwakarma.36 Measurements were done in triplicates. HNQ compounds were dissolved in a particular amount of methanol or CH2Cl2 (HNQ‐9) needed for complete dissolving. Required volumes of these methanol stock solutions were transferred in 1.5 mL reaction tubes (0.1–600 μL dependent on compound and stock concentration) to get a concentration row. After 24–48 h complete evaporation of methanol or CH2Cl2 was accomplished. Remaining solid compounds were dissolved by adding 100/200 μL of sodium phosphate buffer to the reaction tubes, which were shaken at 200 rpm for one day for equilibration. Next day, centrifugation of the reaction tubes for 30 min at 13 000 rpm at 11000 g. 50/100 μL of supernatant were pipetted into a 96‐well plate (UV‐Star, Greiner), and absorbance spectra were recorded for each well with a TECAN Spark plate reader (Tecan Trading AG, Switzerland). By plotting absorbance at λ max against concentration [mM] of the compound, saturation point of graph indicates the thermodynamic equilibrium solubility. Data analysis and visualization with SigmaPlot Pro 12.5 (Systat Software GmbH, Germany).

[2] = molecular target: T1, purified E. coli cyt bd-I oxidase (Escherichia coli, UniProt P0ABJ9); experiment: biochemical; conditions: for remaining activity at 250 µM: read-out: Residual activity for oxygen reduction, Cytochrome bd-I
T1 construct: made in house; host or cells: E. coli C43(DE3) Δbo3 with plasmid pet17b-cydABX-StrepII
T1 sequence (P56100 whole entry): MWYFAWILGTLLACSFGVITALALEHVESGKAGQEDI
T1 sequence (P0ABJ9 whole entry): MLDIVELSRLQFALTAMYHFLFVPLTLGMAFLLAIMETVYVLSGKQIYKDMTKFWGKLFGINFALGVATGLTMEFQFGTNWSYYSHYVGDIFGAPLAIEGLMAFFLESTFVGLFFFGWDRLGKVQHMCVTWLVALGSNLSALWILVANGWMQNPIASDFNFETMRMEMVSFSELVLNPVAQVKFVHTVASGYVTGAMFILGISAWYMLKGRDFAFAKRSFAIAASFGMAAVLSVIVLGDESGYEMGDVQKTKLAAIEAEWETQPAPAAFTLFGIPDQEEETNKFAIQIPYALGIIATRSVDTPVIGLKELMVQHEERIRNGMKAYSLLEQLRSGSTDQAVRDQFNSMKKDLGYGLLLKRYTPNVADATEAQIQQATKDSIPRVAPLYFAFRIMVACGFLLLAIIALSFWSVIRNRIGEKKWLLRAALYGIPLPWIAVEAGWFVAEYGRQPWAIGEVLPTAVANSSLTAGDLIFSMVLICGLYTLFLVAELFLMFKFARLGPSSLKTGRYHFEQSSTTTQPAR
T1 sequence (P0ABK2 whole entry, further chain): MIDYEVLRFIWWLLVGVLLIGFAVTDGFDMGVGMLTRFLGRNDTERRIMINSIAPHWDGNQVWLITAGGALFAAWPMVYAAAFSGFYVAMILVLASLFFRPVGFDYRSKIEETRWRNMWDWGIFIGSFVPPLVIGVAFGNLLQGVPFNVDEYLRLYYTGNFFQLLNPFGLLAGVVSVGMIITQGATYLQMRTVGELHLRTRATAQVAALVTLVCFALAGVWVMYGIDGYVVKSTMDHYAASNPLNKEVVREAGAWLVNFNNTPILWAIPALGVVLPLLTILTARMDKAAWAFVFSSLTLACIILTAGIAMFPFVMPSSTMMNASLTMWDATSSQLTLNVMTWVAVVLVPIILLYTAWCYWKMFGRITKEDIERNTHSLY
Protocol: (§1) The inhibitory effect of a set of HNQs was screened in micromolar range to identify selective cyt bo3 and cyt bd‐I inhibitors. Oxygen reduction was measured via a Clark‐type electrode. Turnover rates of cyt bo3 and bd‐I experiments are presented as relative activities (Figure 1). For experimental overview and further information see Supporting Information (Figures S38–S40), Tables S2–3). Activity of cyt bo 3 was strongly (>50 %) reduced by HNQ‐1, ‐2, ‐6, ‐7 and ‐12. […]. Overall, the E. coli bd‐I‐type oxidase was less sensitive to the majority of examined compounds. […]; HNQ‐12: 56 %).
(§2) Figure 1 Screening of the inhibition potentials of tested hydroxynaphthoquinones (HNQ) on the oxidase reduction activity of purified E. coli cytbo3 (white) and bd‐I (light gray) oxidase. Inhibition assay using HNQs at 250 μM in the presence of 200 μM ubiquinone‐1 and 5 mM dithiothreitol. Oxygen reduction activity was calculated from oxygen consumption rates at 30 nM enzyme concentration at RT for each experiment. 100 % activity=adding corresponding volume of EtOH. KCN (20 μM) and HQNO (250 μM) represent positive inhibition controls for cyt bo3. The data are mean values of three independent experiments ± standard deviation.
(§3) Oxygen reductase activity measurements: Oxygen reductase activity was measured as oxygen consumption rate of purified protein by an OX‐MR Clark‐type oxygen electrode linked to a PA 2000 picoammeter and to an ADC‐216 for analog to digital conversion. Recording of data with SensorTrace Basic 2.1 software (all Unisense, Denmark).
(§4) Measurements were performed at room temperature in stirred 2 mL – glass vials with a total reaction volume of 600 μL. Oxygen consumption was initiated by adding 30 nM of the respective enzyme to the equilibrated mixture containing 20 mM NaPi (pH 8.0), 50 mM NaCl, 0.02 % DDM, 5 mM dithiothreitol (DTT) and 200 μM Ubiquinone‐1 (2,3‐dimethoxy‐5‐methyl‐6‐(3‐methylbut‐2‐en‐1‐yl)‐1,4‐benzoquinone). Equilibration was done for 10 min prior to enzyme addition. Inhibition experiments with 250 μM of respective HNQ from 20 mM stock solution in EtOH before equilibration. Data analysis and visualization with Origin Lab Pro 9.5 (Additive GmbH, Germany). HQNO (2‐heptyl‐4‐quinolinol 1‐oxide) was purchased from biomol GmbH, Hamburg. Determination of apparent k i (k i ^app) was performed under the same conditions but with a range of inhibitor concentrations from 1000 μM to 0.2 μM. The k i ^app value was adopted as the EC50 from the sigmoidal DoseResp Fit. Further information can be found in Figures S40–S43.

[3] = molecular target: T2, purified E. coli cyt bo3 oxidase (Escherichia coli, UniProt P0ABI8); experiment: biochemical; conditions: for inhibition at 250 µM: read-out: inhibition (reduction) of cyt bo3 activity; for remaining activity at 250 µM: read-out: Residual activity for oxygen reduction, Cytochrome bo3
T2 construct: made in house; host or cells: E. coli strain GO195 with plasmid pIRHisA
T2 sequence (P0ABJ1 25-315): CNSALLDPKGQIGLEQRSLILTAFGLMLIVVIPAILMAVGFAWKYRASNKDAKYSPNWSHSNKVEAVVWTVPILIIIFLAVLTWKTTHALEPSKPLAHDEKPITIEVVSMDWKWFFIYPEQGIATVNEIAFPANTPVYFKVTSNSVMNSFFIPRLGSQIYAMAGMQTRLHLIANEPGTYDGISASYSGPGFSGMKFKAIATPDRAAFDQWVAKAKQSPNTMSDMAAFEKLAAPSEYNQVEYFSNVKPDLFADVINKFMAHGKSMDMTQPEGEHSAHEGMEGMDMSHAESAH
T2 sequence (P0ABJ3 whole entry, further chain): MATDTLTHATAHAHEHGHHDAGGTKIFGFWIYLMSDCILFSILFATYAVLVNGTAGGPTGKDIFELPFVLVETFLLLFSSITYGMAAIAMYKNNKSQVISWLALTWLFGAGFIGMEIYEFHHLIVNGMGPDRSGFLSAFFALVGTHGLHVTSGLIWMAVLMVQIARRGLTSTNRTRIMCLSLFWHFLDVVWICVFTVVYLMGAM
T2 sequence (P0ABI8 whole entry): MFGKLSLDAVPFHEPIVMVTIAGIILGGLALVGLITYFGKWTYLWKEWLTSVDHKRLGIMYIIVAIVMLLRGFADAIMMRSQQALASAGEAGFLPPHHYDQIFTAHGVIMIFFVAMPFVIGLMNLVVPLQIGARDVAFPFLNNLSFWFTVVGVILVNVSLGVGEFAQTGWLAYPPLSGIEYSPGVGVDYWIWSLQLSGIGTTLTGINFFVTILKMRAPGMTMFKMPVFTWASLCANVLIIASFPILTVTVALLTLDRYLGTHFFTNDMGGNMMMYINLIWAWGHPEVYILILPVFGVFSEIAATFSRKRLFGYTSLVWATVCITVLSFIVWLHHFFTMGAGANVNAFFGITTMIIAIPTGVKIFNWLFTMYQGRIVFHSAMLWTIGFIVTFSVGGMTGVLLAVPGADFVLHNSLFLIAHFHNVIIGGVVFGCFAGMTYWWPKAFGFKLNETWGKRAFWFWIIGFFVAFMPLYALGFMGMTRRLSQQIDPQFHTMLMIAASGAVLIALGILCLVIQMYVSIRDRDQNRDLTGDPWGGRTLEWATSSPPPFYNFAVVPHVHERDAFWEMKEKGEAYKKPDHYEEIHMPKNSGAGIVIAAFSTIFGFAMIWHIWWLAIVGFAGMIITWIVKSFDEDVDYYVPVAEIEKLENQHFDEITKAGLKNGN
T2 sequence (P0ABJ6 whole entry, further chain): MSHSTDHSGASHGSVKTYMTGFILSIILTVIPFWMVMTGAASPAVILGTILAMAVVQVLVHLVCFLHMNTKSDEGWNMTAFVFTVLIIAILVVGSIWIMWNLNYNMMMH
Protocol: as §1, §2, §3, §4

cyt bo3 = molecular target: T3, cyt bo3 (Escherichia coli, UniProt P0ABI8); conditions: steady state kinetic experiments; read-out: kiapp; cited from earlier work
T3 construct: made in house; host or cells: E. coli strain GO195 with plasmid pIRHisA
T3 sequence (P0ABJ1 25-315): as the sequence (P0ABJ1 25-315) above
T3 sequence (P0ABI8 whole entry): as the sequence (P0ABI8 whole entry) above
T3 sequence (P0ABJ3 whole entry, further chain): as the sequence (P0ABJ3 whole entry, further chain) above
T3 sequence (P0ABJ6 whole entry, further chain): as the sequence (P0ABJ6 whole entry, further chain) above

[4] = inhibitor 250 µM, 200 μM ubiquinone-1, 5 mM DTT, 30 nM enzyme, RT, mean of three ± SD, 100 % = EtOH
[5] = HNQ 250 μM, 200 μM ubiquinone-1
[6] = aqueous with cosolvent or surfactant or cyclodextrin, thermodynamic from solid
[7] = inhibitor 250 µM, 200 μM ubiquinone-1, 5 mM DTT, 30 nM enzyme, RT, mean of three ± SD, 100 % = EtOH, listed as HNQ-4

| Molecule | Residual activity for oxygen reduction, Cytochrome bo3 [3, 4] [%] | inhibitory effect on cyt bd-I oxidase [2, 5] [%] | solubility at 1 day [1, 6] | remaining activity at 250 µM [2, 4] [%] | inhibition at 250 µM [3, 5] [%] | remaining activity at 250 µM [3, 4] [%] | inhibitory effect on cyt bd-I activity (in words) ([2]; HNQ 250 μM) | inhibitory effect on cyt bo3 activity (in words) ([3]; HNQ 250 μM) | other results |
| --- | --- | --- | --- | --- | --- | --- | --- | --- | --- |
| 2‐Hydroxy‐3‐[(3,5‐dihydroxybenzyl)methyl]‐1,4‐naphthoquinone [HNQ‐10] | 69.1 ± 8 |  |  |  |  |  |  |  | Solubility [1]: 840±151 μg/mL and 2.1±0.4 mM; Residual activity for oxygen reduction, Cytochrome bd-I [2, 4]: 107 ± 8%; inhibition (reduction) of cyt bo3 activity [3, 5]: 31% |
| 2‐Hydroxy‐3‐[(4‐phenoxybenzyl)methyl]‐1,4‐naphthoquinone [HNQ‐12] | 13.1 ± 7 | 56 |  |  |  |  |  |  | Solubility [1]: 1640±94 μg/mL and 4.6±0.3 mM; Residual activity for oxygen reduction, Cytochrome bd-I [2, 4]: 43.8 ± 7%; inhibition (reduction) of cyt bo3 activity [3, 5]: > 50% |
| 2‐Hydroxy‐3‐[(ferreocenyl)methyl]‐1,4‐naphthoquinone [HNQ‐9] |  |  |  |  |  |  |  |  | Solubility [1]: >8.3 mM; Residual activity for oxygen reduction, Cytochrome bd-I [2]: 110 ± 17%; inhibitory effect on cyt bd-I oxidase [2]: < 30%; Residual activity for oxygen reduction, Cytochrome bo3 [3]: 84.4 ± 17%; inhibition (reduction) of cyt bo3 activity [3]: < 30% |
| CCCCCCCCCCCCCC1=C(O)C(=O)c2ccccc2C1=O [HNQ‐1, 2‐Hydroxy‐3‐tridecyl‐1,4‐naphthoquinone] |  | 30 | 335 µg/mL and 1020 µM | 70.2 ± 12 | > 50 | 2.64 ± 12 |  |  |  |
| O=C1C(O)=C(Cc2ccccc2)C(=O)c2ccccc21 [HNQ‐2, 2‐Hydroxy‐3‐methylene‐(benzyl)‐1,4‐naphthoquinone] |  |  |  | 107 ± 6 | > 50 | 21.8 ± 6 | not influencing | strong inhibitory effect | Solubility ([1]; aqueous with cosolvent or surfactant or cyclodextrin, thermodynamic from solid, read-out: Solubility): 334 µg/mL and 1260 µM |
| O=C1C(O)=C(Cc2ccncc2)C(=O)c2ccccc21 [HNQ‐3, 2‐Hydroxy‐3‐methylen‐(4‐N‐pyridyl)‐1,4‐naphthoquinone] |  | < 30 | 627 µg/mL and 2360 µM | 110 ± 12 | < 30 | 99.5 ± 12 | activity remains unaffected | activity remains unaffected |  |
| CN(C)c1ccc(CC2=C(O)C(=O)c3ccccc3C2=O)cc1 [HNQ‐4, 2‐Hydroxy‐3‐methylen‐(4‐N,N ‐dimethylanilid)‐1,4 naphthoquinone] | 15 | < 30 | 267 µg/mL and 870 µM |  | < 30 |  |  |  | Residual activity for oxygen reduction, Cytochrome bd-I [2, 4]: 15%; Residual activity for oxygen reduction, Cytochrome bd-I [2, 7]: 84.2 ± 11%; Residual activity for oxygen reduction, Cytochrome bo3 [3, 7]: 84.8 ± 11% |
| O=C1C(O)=C(Cc2ccc3[nH]ncc3c2)C(=O)c2ccccc21 [HNQ‐5, 2‐Hydroxy‐3‐[(indazol‐5‐yl)methyl]‐1,4‐naphthoquinone] |  |  | 1670 µg/mL and 5500 µM | 117 ± 7 | 40 | 59.9 ± 7 |  |  |  |
| O=C1C(O)=C(Cc2ccc3c(c2)OCO3)C(=O)c2ccccc21 [HNQ‐6, 2‐Hydroxy‐3‐[(1,2‐methylenedioxybenz‐5 yl)methyl]‐1,4‐naphthoquinone] | < 30 |  | 400 µg/mL and 780 µM | 109 ± 13 | > 50 | 27.3 ± 13 |  |  |  |
| COc1cc(CC2=C(O)C(=O)c3ccccc3C2=O)ccc1O [HNQ‐7, 2‐Hydroxy‐3‐[(4‐hydroxy‐3‐methoxyphenyl)methyl]‐1,4‐naphthoquinone] | < 50 |  | > 2680 µg/mL and > 8300 µM | 106 ± 7 | > 50 | 49.5 ± 7 |  |  |  |
| O=C1C(O)=C(Cc2c[nH]c3ncccc23)C(=O)c2ccccc21 [HNQ‐8, 2‐Hydroxy‐3‐[(1H‐pyrrolo(2,3‐b)pyridine‐3‐yl)methyl]‐1,4‐naphthoquinone] |  | < 30 | > 3140 µg/mL and > 10300 µM | 106 ± 5 |  | 101 ± 5 | could not show an influence | could not show an influence |  |
| O=C1C(O)=C(C(c2nc3ccccc3s2)N2CCC[C@H]2C(=O)O)C(=O)c2ccccc21 (stereo partly drawn) [HNQ‐11, 2‐Hydroxy‐3‐[(2‐thiazol(2‐3)benzyl)methyl)pyrrolidine‐2‐carboxylic acid‐1,4‐naphthoquinone] |  | < 30 | 800 µg/mL and 1840 µM | 111 ± 13 | < 30 | 115 ± 13 | could not show an influence | could not show an influence |  |
| CCCCCCCc1cc(O)c2ccccc2[n+]1[O-] [HQNO, 2‐heptyl‐4‐quinolinol 1‐oxide, reference compound] |  |  |  | 9.05 ± 1 |  | 4.42 ± 6 |  |  | Ki (cyt bo3): 700 nM |
